# Experimental data published in patent US12016974B2, “Nitric oxide releasing surfaces for decreased fouling, thrombosis, and infection of medical devices” (priority 2016, dated 2024).
# Experiments:
# [1] = after 6 months at room temperature; cited from earlier work
# [2] = Solubility of SNAP in silicone oil; type: physicochemical; settings: oil or lipid, thermodynamic from solid
# Experimental: Leaching of SNAP from the silicone tubing was repeated during the oil swelling process as well, to ensure large amounts of SNAP were not lost during the 3-day swelling period. Sections of SNAP impregnated tubing were massed and placed in 4 mL of silicone oil. The absorbance spectra of silicone oil were taken to ensure no interference would be seen between the SNAP maxima and the oil. […] Therefore, the same calibration curve of SNAP in PBS-EDTA was used for determining SNAP concentration in the silicone oil. Solubility of SNAP in silicone oil was determined by adding 10 mg/mL and put on a vortex mixer for 2 min. The suspension was then centrifuged (10 min, 3000 rpm), and a 1 mL sample of the silicone oil was taken for UV vis spectroscopy.
structure (smiles),measurement,setting,value
"CC(=O)N[C@@H](C(=O)O)C(C)(C)SN=O (racemic) [SNAP, S-nitroso-N-acetylpenicillamine]",SNAP activity retained within a polymer matrix,[1],87%
same,solubility at 2 min,[2],0.4 µg/mL
